The target of the assay is T1, AmiA (Bacteroides uniformis, UniProt A0ABC9NAU1).
T1 sequence (A0ABC9NAU1 24-262): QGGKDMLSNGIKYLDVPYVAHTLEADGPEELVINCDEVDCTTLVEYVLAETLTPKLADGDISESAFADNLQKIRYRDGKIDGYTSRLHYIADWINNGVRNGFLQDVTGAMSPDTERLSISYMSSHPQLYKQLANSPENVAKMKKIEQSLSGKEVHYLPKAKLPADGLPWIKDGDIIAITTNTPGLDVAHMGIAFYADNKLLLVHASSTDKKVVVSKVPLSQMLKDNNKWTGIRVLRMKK
The assay can be described thus: HPLC inhibition assay with TCT. Format: biochemical. Conditions: 0.1 mM TCT substrate, pH 7.8, 37°C.

Turning to `CC(=O)N[C@H]1[C@H](O[C@H]2[C@H](O[C@H](C)C(=O)O)[C@@H](NC(C)=O)[C@@H]3OC[C@H]2O3)O[C@H](CO)[C@@H](O)[C@@H]1O` [GlcNAc-anhMurNAc], the “% activity retained at 1 mM” value (reaction product) came out at 15%. On to `CC(=O)N[C@H]1C(O)O[C@H](CO)[C@@H](O)[C@@H]1O` (stereo partly drawn) [GlcNAc], for which the “% activity retained at 1 mM” value is given as 98%.

Take `CC(=O)N[C@H]1C(O)O[C@H](CO)[C@@H](O)[C@@H]1O[C@H](C)C(=O)O` (stereo partly drawn) [MurNAc]: the “% activity retained at 1 mM” value was 25%.

Source of the values: publication PMC4255150 (Structure (London, England : 1993), 2014).
